Measured values as given in patent US11299518B2, “Fusion respiratory syncytial virus inhibitors and use thereof” (priority 2016, dated 2022).
Bridge positions count the residues as written; N and C are the ends. Square brackets hold non-standard residues; d marks the D form. Peptide text beside a SMILES is read from it. R8 = C=CCCCCCC[C@@](C)(N)C(=O)O; S5 = C=CCCC[C@](C)(N)C(=O)O

Assays:
bRSV = conditions: literature; cited from earlier work
hRSV = conditions: literature; cited from earlier work
[1] = tested on: 5HB, a recombinant 5 helix bundle protein containing 3 HR1 domains covalently attached to 2 HR2 domains; conditions: 50 nM 5HB, 2 nM FITC-T108
Procedure: The fluorescence polarization assay was performed in 384-well plates using a Spectramax Paradigm (Molecular devices), using an excitation and emission wavelength of 485 nm and 535 nm, respectively. The acquisition time was of 700 ms and the read height was of 1 mm.

[2] = CD spectroscopy, percentage of helicity; type: physicochemical; conditions: CD at 222 nm, 10 mM phosphate buffer pH 7.5, 50 μM peptide, 25° C.
Procedure: The secondary structure of the peptides was then characterized by circular dichroism (DC) as described below.
The circular dichroism spectra were acquired on a Jasco J-810 and on a Chirascan spectropolarimeter. The samples were prepared in 10 mM phosphate buffer, pH 7.5, at a peptide concentration of 50 μM. Data were recorded at 25° C. by stepscan from 180 nm to 260 nm in a 0.1 cm pathlength quartz cell using 0.2 nm wavelength increments, 1 nm bandwidth and a response time of 0.5 sec. Each spectrum was an average of three measurements and was subtracted from buffer baseline. The data were converted to per residue molar ellipticity units [θ] (deg·cm2·dmol−1·residue−1) and smoothed using the Igor software. The percentage of helicity was calculated as it follows:
[formula] whereby CD222=molar ellipticity at 222 nm in [mdeg], N=number of amino acids in the peptide and C=peptide molar concentration [mol/l].

circular dichroism = conditions: 10 mM phosphate; pH 7.5; 25 °C; 50 uM
trypsin = assay: Proteolytic stability assay, trypsin; type: in vitro ADME; conditions: trypsin (isolated protease), pH 8; 50 mM Tris-HCl pH8, 25° C., LC-MS; read-out: t1/2 (min) Trypsin
Procedure: (§1) The compounds according to the invention are tested for their stability in a proteolytic stability assay as described below which is an important parameter to assess for the development of peptide therapeutics. Peptides of the invention 4bb, 4ca, 4a and their unstapled comparative peptide 4, as well as both SAH-RSVFBD isomers were treated with chymotrypsin and trypsin, and analysed by LC/MS to quantify the reaction products over time.
(§2) In vitro proteolytic degradation was measured via LC-MS using an Agilent Infinity 1280 UHPLC system coupled to an Agilent quadruple-time-of-flight (QTOF) 6530 with an Agilent Jet Stream electrospray ionisation (AJS ESI) source (all Agilent Technologies, Waldbronn, Germany). 5 μl of digested sample were injected onto a C18 column (Zorbax Eclipse Plus RRHD, 1.8 μm, 2.1*100 mm, Agilent Technologies, Waldbronn, Germany) equilibrated with solvent A and eluted with a flow rate of 0.4 ml/min over a 5-95% gradient of solvent B in 5 minutes, followed by 1.5 minutes at 95% and 0.5 minutes post-time where solvent A was 95% water, 5% acetonitrile with 0.2% formic acid and solvent B was 5% water, 95% acetonitrile with 0.2% formic acid. The AJS ESI source was operated with a capillary voltage of 4000V and a nozzle voltage of 600V with a drying gas temperature of 325° C. and flow rate of 10 l/min, nebulising gas pressure of 20 psi, and a sheath gas temperature of 300° C. and flow rate of 11l/min. Mass spectra were acquired in the positive ion mode from 100-3200 m/z at a rate of 1 scan per second in extended dynamic range (2 GHz) mode. The fragmentor, skimmer and octopole Radio Frequency voltages were set to 200, 60 and 750 V respectively. Data were acquired and analysed with Agilent MassHunter Workstation (version B.05).
(§3) Peptide digestion was performed as it follows: 10 μl of peptide at 0.29 mM in 50/50 acetonitrile/water were dissolved in 990 μl 100 mM Tris-HCl, pH 8.0 with 10 mM CaCl2. Following measurement of the undigested (to) sample, 10 μl of chymotrypsin at 50 μg/ml in 100 mM Tris-HCl, pH 8.0 with 10 mM CaCl2 were added and the sample was vortexed and placed immediately in the autosampler, set to 25° C. Trypsin digestion was performed as with chymotrypsin except that the buffer was in 50 mM Tris-HCl, pH8. Chymotrypsin and trypsin were purchased from Thermo Fisher Scientific.
(§4) The level of intact peptide was quantified by serial injection over time. Integration of the intact peptide compound chromatogram was performed using the Agilent Molecular Feature Extraction (MFE) algorithm. A plot of the intact peptide MFE peak area over time gave an exponential decay curve, from which the half-life was determined using MatLab […].

chymotrypsin = target: T1, chymotrypsin (Bos taurus, UniProt P00766); assay: Proteolytic stability assay, chymotrypsin; type: in vitro ADME; conditions: chymotrypsin (isolated protease); 100 mM Tris-HCl pH 8.0, 10 mM CaCl2, 25° C., LC-MS; read-out: t1/2 (min) Chymotrypsin
T1 construct: purchased Thermo Fisher Scientific
Procedure: as §1, §2, §3, §4

RSV-mCherry = type: cell-based, HRSV
Procedure: The inhibitory activity of the peptides of the invention was assessed in HEp-2 cells as described below:
A mCherry-expressing virus recently developed (Rameix-Welti et al., 2014, Nat. Commun., 5:5104) was used to avoid the cumbersome manipulations required with the GFP-expressing virus.
HEp-2 cells were seeded at 5×10^4 cells per well in 96 wells plate the day before the infection. Peptides were 2-fold serially diluted in DMSO (11 dilutions), then further diluted in MEM medium and pre-incubated for 15-20 minutes with 0.2 MOI of RSV-mCherry (Rameix-Welti et al., 2014, supra). Following the washing of Hep-2 cells with MEM without phenol red medium, the cells were incubated with the virus/peptide mixtures for a period of 1 h30-2 h. The cells were washed and further incubated in MEM media containing fetal bovine serum and the same concentration of peptide that was used during the infection step. Plates were incubated 48 h at 37° C. and the mCherry fluorescence was measured using a spectrofluorometer (Tecan infinite M200PRO) with excitation and emission wavelengths of 580 and 620 nm, respectively (expressed in relative fluorescence units RFU). Non-infected HEp-2 cells were used as standards for fluorescence background levels. Each experiment was performed in duplicate and repeated at least twice.

SMILES | activity against bRSV (bRSV) | activity against hRSV (hRSV) | block of the increase of FP / activity in the biochemical 5HB assay [1] | % helicity [2] [%] | half-life at 2.9 µM (trypsin) [min] | half-life at 2.9 µM (chymotrypsin) [min] | also measured
O=c1n(Cc2nc3ccccc3n2CCCCO)c2cnccc2n1C1CC1 [BMS-433771] | active | active |  |  |  |  | 
Cc1ccc(CCCO)c(NCc2ccc3nc(NCCCN4CCOCC4)n(Cc4nc(C)ccc4O)c3c2)c1 [TMC-353121] | active | active |  |  |  |  | 
CC[C@H](C)[C@H](NC(=O)[C@H](CCCCN)NC(=O)[C@H](CCC(=O)O)NC(C)=O)C(=O)N[C@@H](CC(N)=O)C(=O)N[C@@H](CCC(N)=O)C(=O)N[C@@H](CO)C(=O)N[C@@H](CC(C)C)C(=O)N[C@]1(C)CCCCCCC=CCCC[C@@](C)(C(=O)N[C@@H](CC(C)C)C(=O)N[C@@H](CC(C)C)C(=O)N[C@@H](Cc2c[nH]cn2)C(=O)N[C@@H](CC(N)=O)C(=O)N[C@H](C(N)=O)C(C)C)NC(=O)[C@H](CC(=O)O)NC(=O)[C@H](CO)NC(=O)[C@H](CCCCN)NC(=O)[C@H](CCCNC(=N)N)NC(=O)[C@H]([C@@H](C)CC)NC(=O)[C@H](Cc2ccccc2)NC1=O [Peptide 4e, EKINQSL 8504 FIRKSD X511 LLHNV, reference compound] (Ac-EKINQSL[R8]FIRKSD[S5]LLHNV-NH2; staple 8-15) |  |  | reasonable activity | 23.3 |  |  | helicity (circular dichroism): 23.3%
CC[C@H](C)[C@H](NC(=O)[C@H](CCCCN)NC(=O)[C@H](CCC(=O)O)NC(C)=O)C(=O)N[C@@H](CC(N)=O)C(=O)N[C@@H](CCC(N)=O)C(=O)N[C@@H](CO)C(=O)N[C@@H](CC(C)C)C(=O)N[C@@]1(C)CCCC=CCCC[C@@](C)(C(=O)N[C@@H](CO)C(=O)N[C@@H](CC(=O)O)C(=O)N[C@@]2(C)CCCC=CCCC[C@@](C)(C(=O)N[C@H](C(N)=O)C(C)C)NC(=O)[C@H](Cc3c[nH]cn3)NC(=O)[C@H](CC(C)C)NC(=O)[C@H](CC(C)C)NC2=O)NC(=O)[C@H](CCCNC(=N)N)NC(=O)[C@H]([C@@H](C)CC)NC(=O)[C@H](Cc2ccccc2)NC1=O [Peptide 4a, EKINQSL Xaa8 FIR Xaa12 SD Xaa15 LLH Xaa19 V] (Ac-EKINQSL[S5]FIR[S5]SD[S5]LLH[S5]V-NH2; staple 8-12, 15-19) |  |  |  | 23.5 | 76 | 4480 | 
CC[C@H](C)[C@H](NC(=O)[C@H](CCCCN)NC(=O)[C@H](CCC(=O)O)NC(C)=O)C(=O)N[C@@]1(C)CCCC=CCCC[C@@](C)(C(=O)N[C@@H](Cc2ccccc2)C(=O)N[C@H](C(=O)N[C@@]2(C)CCCC=CCCC[C@@](C)(C(=O)N[C@@H](CC(C)C)C(=O)N[C@@H](CC(C)C)C(=O)N[C@@H](Cc3c[nH]cn3)C(=O)N[C@@H](CC(N)=O)C(=O)N[C@H](C(N)=O)C(C)C)NC(=O)[C@H](CC(=O)O)NC(=O)[C@H](CO)NC(=O)[C@H](CCCCN)NC2=O)[C@@H](C)CC)NC(=O)[C@H](CC(C)C)NC(=O)[C@H](CO)NC(=O)[C@H](CCC(N)=O)NC1=O [Peptide 4bb, EKI Xaa4 QSL Xaa8 FI Xaa11 KSD Xaa15 LLHNV] (Ac-EKI[S5]QSL[S5]FI[S5]KSD[S5]LLHNV-NH2; staple 4-8, 11-15) |  |  |  | 52.9 | 20 | 3010 | 
CC[C@H](C)[C@@H]1NC(=O)[C@H](Cc2ccccc2)NC(=O)[C@@](C)(NC(=O)[C@H](CC(C)C)NC(=O)[C@H](CO)NC(=O)[C@H](CCC(N)=O)NC(=O)[C@H](CCC(=O)O)NC(C)=O)CCCC=CCCC[C@@](C)(C(=O)N[C@@H](CO)C(=O)N[C@@H](CC(=O)O)C(=O)N[C@@H](CCC(=O)O)C(=O)N[C@@H](CC(C)C)C(=O)N[C@@H](CC(C)C)C(=O)N[C@@H](Cc2c[nH]cn2)C(=O)N[C@@H](CC(N)=O)C(=O)N[C@H](C(N)=O)C(C)C)NC(=O)[C@H](CCCNC(=N)N)NC1=O [Peptide 3a, EQSL X504 FIR X508 SDELLHNV, reference compound] (Ac-EQSL[S5]FIR[S5]SDELLHNV-NH2; staple 5-9) |  |  | reasonable activity | 33.9 |  |  | EC50 (RSV-mCherry; HEp-2 cells, 0.2 MOI RSV-mCherry, 48 h): > 25 µM; inhibitory activity in HEp-2 cells (RSV-mCherry; RSV-mCherry): inactive
